# Measurements reported in patent publication US20250320206A1, “STAT6 DEGRADERS” (Gilead Sciences, Inc., priority 2024, published 2025).
# pEC50: −log10 of the molar value.
# Experiments:
# [1] = target: T1, STAT6 (Homo sapiens, UniProt P42226); test: Stat6 Degrader Assay (HiBiT based, HeLa LgBiT clone 4.14); assay type: cell-based; conditions: HeLa LgBiT clone 4.14 HiBiT-STAT6, 4-24 h incubation; values given for compounds with >80% Emax; geometric mean; read-out: STAT6 degradation DC50
# T1 construct: These cells express endogenous STAT6; host or cells: HeLa LgBiT clone 4.14
# T1 sequence (P42226 1-847): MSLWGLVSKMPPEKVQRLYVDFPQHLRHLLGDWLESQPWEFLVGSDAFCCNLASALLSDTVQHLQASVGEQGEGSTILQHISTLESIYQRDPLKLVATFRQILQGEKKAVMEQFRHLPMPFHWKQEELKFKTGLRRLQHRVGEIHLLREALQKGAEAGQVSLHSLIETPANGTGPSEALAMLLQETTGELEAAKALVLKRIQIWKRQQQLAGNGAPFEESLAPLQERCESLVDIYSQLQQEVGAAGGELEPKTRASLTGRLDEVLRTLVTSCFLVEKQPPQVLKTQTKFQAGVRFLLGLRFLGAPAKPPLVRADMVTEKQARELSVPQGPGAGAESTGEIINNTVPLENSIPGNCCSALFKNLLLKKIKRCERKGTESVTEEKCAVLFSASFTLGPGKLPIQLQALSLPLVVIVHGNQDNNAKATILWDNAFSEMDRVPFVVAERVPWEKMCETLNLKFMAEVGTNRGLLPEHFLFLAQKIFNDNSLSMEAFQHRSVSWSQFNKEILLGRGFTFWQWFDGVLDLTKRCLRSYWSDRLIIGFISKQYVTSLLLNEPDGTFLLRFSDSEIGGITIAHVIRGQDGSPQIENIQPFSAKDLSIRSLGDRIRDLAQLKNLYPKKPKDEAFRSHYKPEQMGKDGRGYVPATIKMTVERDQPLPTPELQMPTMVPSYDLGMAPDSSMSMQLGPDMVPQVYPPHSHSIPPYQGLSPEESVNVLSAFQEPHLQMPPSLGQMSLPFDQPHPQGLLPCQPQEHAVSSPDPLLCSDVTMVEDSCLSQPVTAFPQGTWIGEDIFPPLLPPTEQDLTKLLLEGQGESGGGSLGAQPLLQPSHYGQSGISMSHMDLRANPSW
# Summary of the method: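 Luminescence from HiBiT-STAT6 complementing stably expressed LgBiT in HeLa clone 4.14 reports remaining STAT6 protein. Cells (5000/well) exposed to compound for 4-24 h at 37° C; read 0.5 h after Nano-Glo addition. 100% degradation window set with 50 μM terfenadine; percent degradation plotted against concentration.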
# [2] = tested on: Eotaxin-3 release in human whole blood stimulated with IL-4; test: Human Whole Blood Eotaxin-3 Assay (IL-4 stimulated eotaxin-3 release); assay type: cell-based; conditions: IL-4 stimulation, 48 h, values given for compounds with >80% Emax, geometric mean
# Summary of the method: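 Eotaxin-3 (CCL26) release measured by MSD kit in plasma supernatant after 48 h IL-4 stimulation ([…]) of human whole blood. Compounds added in triplicate 4-fold dilutions 2 h before stimulation; 0.5% DMSO final, 37° C, 5% CO2.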
Structure (SMILES),DC50 [1],pEC50 [2]
"CNc1cc(=O)n(-c2ccnc3c2cc(CN2CC=C(c4c(F)cc(C(=O)N5CCC(CN6CCN(Cc7ccc8c(c7)n(C7CC7)c(=O)n8C7CCC(=O)NC7=O)C[C@@H]6C)CC5)cc4F)CC2)n3C)cc1F (stereo partly drawn) [Example 3u213, 3-(3-cyclopropyl-5-(((S)-4-((1-(3,5-difluoro-4-(1-((4-(5-fluoro-4-(methylamino)-2-oxopyridin-1 (2H)-yl)-1-methyl-1H-pyrrolo[2,3-b]pyridin-2-yl)methyl)-1,2,3,6-tetrahydropyridin-4-yl)benzoyl)piperidin-4-yl)methyl)-3-methylpiperazin-1-yl)methyl)-2-oxo-2,3-dihydro-1H-benzo[d]imidazol-1-yl)piperidine-2,6-dione]",8.6 nM,7.88
"CNc1ccn(-c2ccnc3c2cc(CN2CCC(c4c(F)cc(C(=O)N5CCC(CN6CCN(Cc7ccc8c(c7)n(C7CC7)c(=O)n8C7CCC(=O)NC7=O)C[C@@H]6C)CC5)cc4F)CC2)n3C)c(=O)c1 (stereo partly drawn) [Example 3u216, 3-(3-cyclopropyl-5-(((S)-4-((1-(3,5-difluoro-4-(1-((1-methyl-4-(4-(methylamino)-2-oxopyridin-1 (2H)-yl)-1H-pyrrolo[2,3-b]pyridin-2-yl)methyl)piperidin-4-yl)benzoyl)piperidin-4-yl)-methyl)-3-methylpiperazin-1-yl)methyl)-2-oxo-2,3-dihydro-1H-benzo[d]imidazol-1-yl)piperidine-2,6-dione]",3.5 nM,8.82
"CNc1cc(=O)n(-c2ccnc3c2cc(CN2CCC(c4c(F)cc(C(=O)N5CCC(CN6CCN(Cc7ccc8c(c7)C7(CC7)C(=O)N8C7CCC(=O)NC7=O)C[C@@H]6C)CC5)cc4F)CC2)n3C)cc1F (stereo partly drawn) [Example 3u219, 3-(5′-(((S)-4-((1-(3,5-difluoro-4-(1-((4-(5-fluoro-4-(methylamino)-2-oxopyridin-1 (2H)-yl)-1-methyl-1H-pyrrolo[2,3-b]pyridin-2-yl)methyl)piperidin-4-yl)benzoyl)piperidin-4-yl)methyl)-3-methylpiperazin-1-yl)methyl)-2′-oxospiro[cyclopropane-1,3′-indolin]-1′-yl)piperidine-2,6-dione]",1.8 nM,8.66
"CNc1ccn(-c2ccnc3c2cc(CN2CCC(c4c(F)cc(C(=O)N5CCC(CN6CCN(Cc7ccc8c(c7)C7(CC7)C(=O)N8C7CCC(=O)NC7=O)C[C@@H]6C)CC5)cc4F)CC2)n3C)c(=O)c1 (stereo partly drawn) [Example 3u222, 3-(5′-(((S)-4-((1-(3,5-difluoro-4-(1-((1-methyl-4-(4-(methylamino)-2-oxopyridin-1 (2H)-yl)-1H-pyrrolo[2,3-b]pyridin-2-yl)methyl)piperidin-4-yl)benzoyl)piperidin-4-yl)methyl)-3-methylpiperazin-1-yl)methyl)-2′-oxospiro[cyclopropane-1,3′-indolin]-1′-yl)piperidine-2,6-dione]",1.5 nM,8.96
"CNc1ccn(-c2ccnc3c2cc([C@H](C)N2CC=C(c4c(C)cc(C(=O)N(C)c5ccc(C6CCN(Cc7ccc8c(c7)n(C)c(=O)n8C7CCC(=O)NC7=O)CC6)nc5)cc4F)CC2)n3C)c(=O)c1 (stereo partly drawn) [Example 3u231, N-(6-(1-((1-(2,6-dioxopiperidin-3-yl)-3-methyl-2-oxo-2,3-dihydro-1H-benzo[d]-imidazol-5-yl)methyl)piperidin-4-yl)pyridin-3-yl)-3-fluoro-N,5-dimethyl-4-(1-((S)-1-(1-methyl-4-(4-(methylamino)-2-oxopyridin-1 (2H)-yl)-1H-pyrrolo[2,3-b]pyridin-2-yl)ethyl)-1,2,3,6-tetrahydropyridin-4-yl)benzamide]",0.1 nM,9.10
"CNc1cc(=O)n(-c2ccnc3c2cc([C@H](C)N2CC=C(c4c(C)cc(C(=O)N(C)c5ccc(C6CCN(Cc7ccc8c(c7)C7(CC7)C(=O)N8C7CCC(=O)NC7=O)CC6)cc5)cc4F)CC2)n3C)cc1F (stereo partly drawn) [Example 3u236, N-(4-(1-((1′-(2,6-dioxopiperidin-3-yl)-2′-oxospiro[cyclopropane-1,3′-indolin]-5′-yl)methyl)piperidin-4-yl)phenyl)-3-fluoro-4-(1-((S)-1-(4-(5-fluoro-4-(methylamino)-2-oxopyridin-1 (2H)-yl)-1-methyl-1H-pyrrolo[2,3-b]pyridin-2-yl)ethyl)-1,2,3,6-tetrahydropyridin-4-yl)-N,5-dimethylbenzamide]",0.1 nM,9.05
"CNc1cc(=O)n(-c2ccnc3c2cc([C@H](C)N2CC=C(c4c(C)cc(C(=O)N(C)c5ccc(N6CCN(Cc7ccc8c(c7)n(C)c(=O)n8C7CCC(=O)NC7=O)CC6)nc5)cc4F)CC2)n3C)cc1F (stereo partly drawn) [Example 3u237, N-(6-(4-((1-(2,6-dioxopiperidin-3-yl)-3-methyl-2-oxo-2,3-dihydro-1H-benzo[d]-imidazol-5-yl)methyl)piperazin-1-yl)pyridin-3-yl)-3-fluoro-4-(1-((S)-1-(4-(5-fluoro-4-(methylamino)-2-oxopyridin-1 (2H)-yl)-1-methyl-1H-pyrrolo[2,3-b]pyridin-2-yl)ethyl)-1,2,3,6-tetrahydropyridin-4-yl)-N,5-dimethylbenzamide]",0.1 nM,8.77

# Further lines, results first:
DC50 [1],pEC50 [2],Structure (SMILES)
0.1 nM,9.52,"CNc1ccn(-c2ccnc3c2cc([C@H](C)N2CC=C(c4c(C)cc(C(=O)N(C)c5ccc(C6CCN(Cc7ccc8c(c7)n(C)c(=O)n8C7CCC(=O)NC7=O)CC6)cc5)cc4F)CC2)n3C)c(=O)c1 (stereo partly drawn) [Example 3u225, N-(4-(1-((1-(2,6-dioxopiperidin-3-yl)-3-methyl-2-oxo-2,3-dihydro-1H-benzo[d]-imidazol-5-yl)methyl)piperidin-4-yl)phenyl)-3-fluoro-N,5-dimethyl-4-(1-((S)-1-(1-methyl-4-(4-(methyl-amino)-2-oxopyridin-1 (2H)-yl)-1H-pyrrolo[2,3-b]pyridin-2-yl)ethyl)-1,2,3,6-tetrahydropyridin-4-yl)-benzamide]"
0.2 nM,8.92,"CNc1ccn(-c2ccnc3c2cc(CN2CC=C(c4c(C)cc(C(=O)N(C)c5ccc(C6CCN(Cc7ccc8c(c7)C(C)(C)C(=O)N8C7CCC(=O)NC7=O)CC6)cc5)cc4F)CC2)n3C)c(=O)c1 (stereo not shown) [Example 3u228, N-(4-(1-((1-(2,6-dioxopiperidin-3-yl)-3,3-dimethyl-2-oxoindolin-5-yl)methyl)-piperidin-4-yl)phenyl)-3-fluoro-N,5-dimethyl-4-(1-((1-methyl-4-(4-(methylamino)-2-oxopyridin-1 (2H)-yl)-1H-pyrrolo[2,3-b]pyridin-2-yl)methyl)-1,2,3,6-tetrahydropyridin-4-yl)benzamide]"
0.1 nM,9.10,"CNc1ccn(-c2ccnc3c2cc([C@H](C)N2CC=C(c4c(C)cc(C(=O)N(C)c5ccc(C6CCN(Cc7ccc8c(c7)C(C)(C)C(=O)N8C7CCC(=O)NC7=O)CC6)cc5)cc4F)CC2)n3C)c(=O)c1 (stereo partly drawn) [Example 3u232, N-(4-(1-((1-(2,6-dioxopiperidin-3-yl)-3,3-dimethyl-2-oxoindolin-5-yl)methyl)-piperidin-4-yl)phenyl)-3-fluoro-N,5-dimethyl-4-(1-((S)-1-(1-methyl-4-(4-(methylamino)-2-oxopyridin-1 (2H)-yl)-1H-pyrrolo[2,3-b]pyridin-2-yl)ethyl)-1,2,3,6-tetrahydropyridin-4-yl)benzamide]"
0.2 nM,8.89,"CNc1cc(=O)n(-c2ccnc3c2cc([C@H](C)N2CC=C(c4c(C)cc(C(=O)N(C)c5ccc(C6CCN(Cc7ccc8c(c7)C(C)(C)C(=O)N8C7CCC(=O)NC7=O)CC6)cc5)cc4F)CC2)n3C)cc1F (stereo partly drawn) [Example 3u233, N-(4-(1-((1-(2,6-dioxopiperidin-3-yl)-3,3-dimethyl-2-oxoindolin-5-yl)methyl)piperidin-4-yl)phenyl)-3-fluoro-4-(1-((S)-1-(4-(5-fluoro-4-(methylamino)-2-oxopyridin-1 (2H)-yl)-1-methyl-1H-pyrrolo[2,3-b]pyridin-2-yl)ethyl)-1,2,3,6-tetrahydropyridin-4-yl)-N,5-dimethylbenzamide]"
